This data set concerns patients diagnosed to have allergic fungal sinusitis resistant to treatment. Description: Nasal Spray Study: patient questionnaire after two months of intranasal treatment. The following applies: for effectiveness in treating allergic fungal sinusitis, allergic rhinitis and asthma (symptom relief): extremely low dose, patients resistant to standard treatments including corticosteroids; for side effects: low dose, patients tested. An excerpt: Fifty-four patients were selected on the basis of their failure to respond to intranasal corticosteroids for the treatment of acute and chronic sinusitis and allergic rhinitis and positive skin tests to fungi. […] The age range was 6 years to 71 years.
Each patient was instructed to use two sprays in each nostril twice daily, AM and PM for a total of four sprays per nostril per day. Treatment lasted for two months.
Therefore, the status of the patients' symptoms were documented over a period of two months.
The following statements were posed to the patients after treatment for two months with regard to their symptoms before and after the course of treatment.

[1] abbreviates: intranasal, listed as compound of formula I.

Entries after “also recorded” stand apart in the source; their conditions may differ.

Consider `CC(C)(O)c1ccccc1CC[C@@H](SCC1(CC(=O)[O-])CC1)c1cccc(/C=C/c2ccc3ccc(Cl)cc3n2)c1.[Na+]` [sodium salt of montelukast, montelukast], for which the “Total Number of Patients Post Treatment Reporting Improvement (sinus pain, post nasal drip and nasal congestion worse in cold weather)” value (52 tested, 21 reporting prior to treatment, intranasal, two months) was 14 patients. Besides, the “Total Number of Patients Post Treatment that Reported Improvement (worry that sinus pain, post nasal drip and nasal congestion affect health and make it difficult to sleep)” value (52 tested, 31 reporting prior to treatment, intranasal, two months) is listed as 30 patients. In addition, the “Total Number of Patients Reporting Improvement (sinus and nasal congestion worse around tobacco smoke, fumes or strong odors)” value (52 tested, 42 reporting prior to treatment, intranasal, two months) is 24 patients. The “Total Number of Patients Post Treatment Reporting Improvement (sleeping trouble due to coughing and choking attacks, post nasal drip and sinus pain)” value (52 treated, 29 reporting prior to treatment, intranasal, two months) came to 28 patients. The “Total Number of Patients Post Treatment that Reported Improvement (allergy medicine does not control nasal congestion, sinusitis, post nasal drip and ear congestion)” value (52 treated, 42 reporting prior to treatment, intranasal, two months) is reported as 42 patients. In addition, for the setting “52 treated, 44 reporting prior to treatment, intranasal, two months”, the “Total Number of Patients Reporting Improvement (respiratory infection goes into sinuses, ears and nose)” value turned out to be 27 patients. Also, the “Total Number of Patients Post Treatment Reporting Improvement (dust, pollen and pets cause nasal congestion, sinus pain, ear pain and dizziness)” value (52 treated, 45 reporting prior to treatment, intranasal, two months) turned out to be 37 patients. Further, under “at the end of two months, of the fifty-two patients, intranasal saline spray”, the “patients with positive results and alleviation of major symptoms” value is on record as “forty-two”. For the same compound, where the note is “intranasal”, the “effectiveness in treating allergic fungal sinusitis, allergic rhinitis and asthma (symptom relief)” value was “effective not only in relieving nasal congestions, sinus pain, post nasal drip, throat pain and serous otitis media, but it also helped their asthma; also recorded: effective”; the side effects entry was “no significant side effects”. Further, under setting [1], the “effectiveness in treating allergic fungal sinusitis, allergic rhinitis and asthma (symptom relief)” value is “improvement in these non-responders was noticed”; the side effects result is “without harmful effects”. Moreover, the “time to some recovery after application” value (nasal spray, low dosages) is “within one day”. The “Total Number of Patients Reporting Improvement of Breathing Post-Treatment” value (statement: trouble breathing or cough when walking or doing simple chores, 52 treated, 34 with trouble breathing before treatment, intranasal, two months) came out at 24 patients.
